This note sets out measurements from publication doi:10.1101/2021.06.10.447714v2 (bioRxiv, 2021).

Common to all, as to assay type: biochemical
For series [1], the target named is T1, insulin degrading enzyme (IDE) (Homo sapiens, UniProt P14735). The series is described as follows: Circular dichroism analysis of insulin degradation by IDE. The following applies: CD at 222 nm and LC, substrate:enzyme ratio 100:1, 37 °C. A general note: Circular dichroism is the unequal absorption of left and right circularly polarised light.
Series [2] concerns the target T1, insulin degrading enzyme (IDE). Kind of series: Identification of IDE-mediated cleavage sites by HPLC and MALDI-TOF. As to conditions: HPLC (C-18) and MALDI-TOF; 50 mM Tris pH 7.3, 37 °C; three runs.
Series [3] shares this target. Kind of series: SDS-PAGE assay for ghrelin proteolysis by IDE. The following applies: EDTA added to the enzyme pre-mixture, 50 mM Tris pH 7.3, 37 °C.

On to “insulin: established IDE substrate, used in CD experiments”, for which the “insulin degradation by IDE in 30% TFE” value in series [1] was “does not degrade”.

For the molecule `CCCCCCCC(=O)OC[C@H](NC(=O)[C@H](CO)NC(=O)CN)C(=O)N[C@@H](Cc1ccccc1)C(=O)N[C@@H](CC(C)C)C(=O)N[C@@H](CO)C(=O)N1CCC[C@H]1C(=O)N[C@@H](CCC(=O)O)C(=O)N[C@@H](Cc1cnc[nH]1)C(=O)N[C@@H](CCC(N)=O)C(=O)N[C@@H](CCCNC(=N)N)C(=O)N[C@H](C(=O)N[C@@H](CCC(N)=O)C(=O)N[C@@H](CCC(N)=O)C(=O)N[C@@H](CCCNC(=N)N)C(=O)N[C@@H](CCCCN)C(=O)N[C@@H](CCC(=O)O)C(=O)N[C@@H](CO)C(=O)N[C@@H](CCCCN)C(=O)N[C@@H](CCCCN)C(=O)N1CCC[C@H]1C(=O)N1CCC[C@H]1C(=O)N[C@@H](C)C(=O)N[C@@H](CCCCN)C(=O)N[C@@H](CC(C)C)C(=O)N[C@@H](CCC(N)=O)C(=O)N1CCC[C@H]1C(=O)N[C@@H](CCCNC(=N)N)C(=O)O)C(C)C` [ghrelin], the “IDE-mediated cleavage sites (initial)” value in series [2] was “Q13/ Q14, Q14/R15 and possibly Q10/R11”.

Take `O=C(O)CN(CCN(CC(=O)O)CC(=O)O)CC(=O)O` [EDTA, ethylenediaminetetraacetate]: the “inhibition of IDE-mediated ghrelin proteolysis” value in series [3] is “inhibited”.
